Values of other authors as cited in US11260028B2, “Nanosome formulations of aprepitant and methods and applications thereof” (ForDoz Pharma Corp., priority 2017, dated 2022).

C[C@@H](O[C@H]1OCCN(Cc2n[nH]c(=O)[nH]2)[C@H]1c1ccc(F)cc1)c1cc(C(F)(F)F)cc(C(F)(F)F)c1 [aprepitant, 5-[[(2R,3S)-2-[(1R)-1-[3,5-bis(trifluoromethyl)phenyl]ethoxy]-3-(4-fluorophenyl)-4-morpholinyl]methyl]-1,2-dihydro-3H-1,2,4-triazol-3-one]
water solubility: poor
